Tests used:
[1] = target: 1-phosphatidylinositol 3-phosphate 5-kinase (Homo sapiens) (UniProt Q9Y2I7); assay: Selectivity interaction (KinomeScan (DiscoverX)) EUB0001049a PIKFYVE; details: at 1 µM
[2] = target: Serine/threonine-protein kinase pim-3 (Homo sapiens) (UniProt Q86V86); assay: Selectivity interaction (Ambit KINOMEscan and KiNATiv profiling in Jurkat cells) EUB0000090b PIM3; assay type: cell-based; details: at 1 µM
[3] = target: T1, Bromodomain and PHD finger-containing protein 3 (Homo sapiens) (UniProt Q9ULD4); assay: Selectivity interaction (Bromodomain panel (DSF asssay)) EUB0000270b BRPF3
T1 sequence (whole entry): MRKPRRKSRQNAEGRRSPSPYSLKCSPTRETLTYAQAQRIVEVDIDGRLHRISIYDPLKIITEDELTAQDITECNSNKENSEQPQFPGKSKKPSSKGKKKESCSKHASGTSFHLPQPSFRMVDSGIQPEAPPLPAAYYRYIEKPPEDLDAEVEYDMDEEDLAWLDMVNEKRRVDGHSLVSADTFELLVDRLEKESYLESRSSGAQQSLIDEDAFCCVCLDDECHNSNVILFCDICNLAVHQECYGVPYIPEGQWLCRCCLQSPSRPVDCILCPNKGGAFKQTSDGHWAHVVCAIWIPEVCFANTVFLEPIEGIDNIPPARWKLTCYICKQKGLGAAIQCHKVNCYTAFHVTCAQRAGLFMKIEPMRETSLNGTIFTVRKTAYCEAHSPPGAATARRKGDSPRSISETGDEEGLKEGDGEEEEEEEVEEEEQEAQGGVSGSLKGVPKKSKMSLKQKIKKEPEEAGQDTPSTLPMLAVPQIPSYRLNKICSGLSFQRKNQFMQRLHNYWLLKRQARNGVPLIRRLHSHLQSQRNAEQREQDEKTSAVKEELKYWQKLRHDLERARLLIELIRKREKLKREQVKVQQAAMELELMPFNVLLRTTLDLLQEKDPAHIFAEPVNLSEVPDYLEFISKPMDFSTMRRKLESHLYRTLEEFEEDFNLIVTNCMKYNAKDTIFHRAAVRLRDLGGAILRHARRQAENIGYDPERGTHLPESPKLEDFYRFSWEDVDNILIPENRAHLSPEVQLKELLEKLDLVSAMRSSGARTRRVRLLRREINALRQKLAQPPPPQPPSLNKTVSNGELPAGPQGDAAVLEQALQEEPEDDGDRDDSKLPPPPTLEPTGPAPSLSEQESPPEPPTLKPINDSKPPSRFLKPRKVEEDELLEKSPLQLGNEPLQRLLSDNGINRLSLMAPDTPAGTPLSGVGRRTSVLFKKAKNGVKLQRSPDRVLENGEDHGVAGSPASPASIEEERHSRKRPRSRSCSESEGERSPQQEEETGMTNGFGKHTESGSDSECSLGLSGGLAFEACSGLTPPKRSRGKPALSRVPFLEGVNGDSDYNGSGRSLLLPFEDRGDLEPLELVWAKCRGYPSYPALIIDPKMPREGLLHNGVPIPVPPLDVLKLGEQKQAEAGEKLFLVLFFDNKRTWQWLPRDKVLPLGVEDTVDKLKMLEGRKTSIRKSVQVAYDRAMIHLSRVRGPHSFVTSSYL

[4] = tested on: Serine/threonine-protein kinase B-raf (Homo sapiens), P15056 [V600E]; assay: Selectivity interaction (LanthaScreen Eu Kinase Binding Assay) EUB0001632a BRAF; details: at 10 µM
[5] = target: Serine/threonine-protein kinase PAK 6 (Homo sapiens) (UniProt Q9NQU5); details: at 10 µM
[6] = target: Cyclin-dependent kinase 11B (Homo sapiens) (UniProt P21127); assay: Selectivity interaction (KinomeScan (DiscoverX)) EUB0001079a CDK11B; details: at 1 µM
[7] = tested on: Tyrosine-protein kinase ABL1 (Homo sapiens), P00519 [F317I]; assay: Selectivity interaction (KinomeScan (DiscoverX)) EUB0000045b ABL1; details: at 10 µM
[8] = target: Protein kinase C theta type (Homo sapiens, UniProt Q04759); assay: Selectivity interaction (KinomeScan (DiscoverX)) EUB0000311b PRKCQ; details: at 1 µM
[9] = target: Phosphatidylinositol 4-kinase alpha (Homo sapiens, UniProt P42356); assay: Selectivity interaction (ActivX KiNativ screen (ex vivo kinase selectivity in human PBMCs)) EUB0001619a PI4KA; assay type: cell-based; details: PBMC, at 1 µM
[10] = target: T2, Serine/threonine-protein kinase Nek2 (Homo sapiens) (UniProt P51955); assay: Selectivity interaction (KinomeScan (DiscoverX)) EUB0001619a NEK2; details: at 1 µM
T2 sequence (whole entry): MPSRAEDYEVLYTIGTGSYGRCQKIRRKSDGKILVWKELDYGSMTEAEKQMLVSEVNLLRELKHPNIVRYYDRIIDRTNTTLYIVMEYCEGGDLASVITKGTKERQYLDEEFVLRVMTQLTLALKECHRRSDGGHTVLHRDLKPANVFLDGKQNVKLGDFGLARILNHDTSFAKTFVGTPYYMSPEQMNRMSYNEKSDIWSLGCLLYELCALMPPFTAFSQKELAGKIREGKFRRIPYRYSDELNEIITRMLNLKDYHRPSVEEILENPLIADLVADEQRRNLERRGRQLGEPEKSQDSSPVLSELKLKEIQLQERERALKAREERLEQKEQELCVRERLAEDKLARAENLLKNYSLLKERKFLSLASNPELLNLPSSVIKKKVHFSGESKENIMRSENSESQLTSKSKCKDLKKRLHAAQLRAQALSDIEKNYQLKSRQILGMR

Serine/threonine-protein kinase B-raf (Homo sapiens), P15056 [V600E], sequence (P15056 whole entry V600E): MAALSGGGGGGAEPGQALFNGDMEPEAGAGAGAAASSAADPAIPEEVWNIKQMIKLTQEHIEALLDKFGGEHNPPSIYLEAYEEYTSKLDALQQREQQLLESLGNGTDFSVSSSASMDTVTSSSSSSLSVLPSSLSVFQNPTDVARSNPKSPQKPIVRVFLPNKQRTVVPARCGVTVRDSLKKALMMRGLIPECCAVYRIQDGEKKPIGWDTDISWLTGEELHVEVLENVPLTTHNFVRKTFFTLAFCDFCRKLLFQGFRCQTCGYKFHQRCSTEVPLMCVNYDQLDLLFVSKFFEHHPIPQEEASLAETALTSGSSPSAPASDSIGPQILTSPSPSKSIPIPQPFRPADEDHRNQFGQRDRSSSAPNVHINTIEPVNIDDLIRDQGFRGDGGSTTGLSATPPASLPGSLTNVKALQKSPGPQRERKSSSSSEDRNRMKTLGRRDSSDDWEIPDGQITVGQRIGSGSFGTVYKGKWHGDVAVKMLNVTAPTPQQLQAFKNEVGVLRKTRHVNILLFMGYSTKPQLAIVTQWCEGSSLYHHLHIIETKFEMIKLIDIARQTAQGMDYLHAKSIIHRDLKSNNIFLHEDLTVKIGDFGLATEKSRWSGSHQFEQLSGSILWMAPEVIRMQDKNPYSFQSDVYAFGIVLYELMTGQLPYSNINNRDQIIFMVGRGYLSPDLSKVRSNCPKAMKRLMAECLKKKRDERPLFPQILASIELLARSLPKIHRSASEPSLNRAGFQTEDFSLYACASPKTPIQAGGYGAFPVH
Protein kinase C theta type, sequence (Q04759 whole entry, looked up): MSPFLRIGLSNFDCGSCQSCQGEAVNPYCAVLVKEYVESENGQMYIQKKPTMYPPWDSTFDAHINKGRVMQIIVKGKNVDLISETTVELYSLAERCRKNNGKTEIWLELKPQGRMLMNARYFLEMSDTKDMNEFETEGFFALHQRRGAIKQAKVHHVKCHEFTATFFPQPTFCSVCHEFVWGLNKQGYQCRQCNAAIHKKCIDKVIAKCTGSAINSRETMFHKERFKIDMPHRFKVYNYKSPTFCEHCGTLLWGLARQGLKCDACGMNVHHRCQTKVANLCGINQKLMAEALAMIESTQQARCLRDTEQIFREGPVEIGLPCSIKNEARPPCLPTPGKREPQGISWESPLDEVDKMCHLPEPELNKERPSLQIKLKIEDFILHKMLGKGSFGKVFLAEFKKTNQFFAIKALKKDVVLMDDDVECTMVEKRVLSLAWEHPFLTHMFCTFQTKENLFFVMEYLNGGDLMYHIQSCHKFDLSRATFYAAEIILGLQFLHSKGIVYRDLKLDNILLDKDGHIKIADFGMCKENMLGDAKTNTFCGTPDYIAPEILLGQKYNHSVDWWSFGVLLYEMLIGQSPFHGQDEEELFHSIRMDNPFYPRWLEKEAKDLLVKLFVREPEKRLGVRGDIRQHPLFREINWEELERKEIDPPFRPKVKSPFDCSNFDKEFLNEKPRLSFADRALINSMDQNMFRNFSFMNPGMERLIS
Tyrosine-protein kinase ABL1 (Homo sapiens), P00519 [F317I], sequence (P00519 whole entry F317I): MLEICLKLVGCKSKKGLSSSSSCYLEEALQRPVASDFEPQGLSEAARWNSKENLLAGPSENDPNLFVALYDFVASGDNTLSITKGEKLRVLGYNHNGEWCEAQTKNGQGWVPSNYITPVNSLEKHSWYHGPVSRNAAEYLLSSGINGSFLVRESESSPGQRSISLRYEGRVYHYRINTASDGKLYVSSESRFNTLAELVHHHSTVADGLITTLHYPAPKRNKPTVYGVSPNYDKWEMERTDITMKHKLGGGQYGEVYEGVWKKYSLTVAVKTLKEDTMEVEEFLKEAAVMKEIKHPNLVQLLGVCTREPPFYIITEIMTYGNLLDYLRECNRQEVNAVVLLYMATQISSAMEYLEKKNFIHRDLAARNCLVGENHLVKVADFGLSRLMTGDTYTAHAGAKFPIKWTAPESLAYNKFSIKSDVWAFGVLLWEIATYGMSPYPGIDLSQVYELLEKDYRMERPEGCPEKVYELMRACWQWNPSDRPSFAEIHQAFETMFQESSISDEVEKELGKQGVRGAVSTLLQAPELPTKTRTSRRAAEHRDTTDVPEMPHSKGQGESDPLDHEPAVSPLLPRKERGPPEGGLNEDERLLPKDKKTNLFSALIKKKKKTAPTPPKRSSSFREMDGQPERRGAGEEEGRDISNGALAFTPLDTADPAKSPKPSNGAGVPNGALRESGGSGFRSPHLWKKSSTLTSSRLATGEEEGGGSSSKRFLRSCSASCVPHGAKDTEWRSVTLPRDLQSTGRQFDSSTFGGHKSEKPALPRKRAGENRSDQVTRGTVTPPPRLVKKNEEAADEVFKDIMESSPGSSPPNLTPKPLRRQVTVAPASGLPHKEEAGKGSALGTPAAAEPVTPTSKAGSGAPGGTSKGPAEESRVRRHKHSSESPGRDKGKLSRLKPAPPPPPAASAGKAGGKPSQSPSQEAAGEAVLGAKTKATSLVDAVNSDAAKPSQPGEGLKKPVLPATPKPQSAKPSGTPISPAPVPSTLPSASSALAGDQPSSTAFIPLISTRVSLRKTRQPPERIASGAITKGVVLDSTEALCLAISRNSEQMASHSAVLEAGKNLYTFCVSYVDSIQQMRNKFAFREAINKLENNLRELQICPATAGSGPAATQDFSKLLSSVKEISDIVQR
Cyclin-dependent kinase 11B (Homo sapiens), sequence (P21127 whole entry): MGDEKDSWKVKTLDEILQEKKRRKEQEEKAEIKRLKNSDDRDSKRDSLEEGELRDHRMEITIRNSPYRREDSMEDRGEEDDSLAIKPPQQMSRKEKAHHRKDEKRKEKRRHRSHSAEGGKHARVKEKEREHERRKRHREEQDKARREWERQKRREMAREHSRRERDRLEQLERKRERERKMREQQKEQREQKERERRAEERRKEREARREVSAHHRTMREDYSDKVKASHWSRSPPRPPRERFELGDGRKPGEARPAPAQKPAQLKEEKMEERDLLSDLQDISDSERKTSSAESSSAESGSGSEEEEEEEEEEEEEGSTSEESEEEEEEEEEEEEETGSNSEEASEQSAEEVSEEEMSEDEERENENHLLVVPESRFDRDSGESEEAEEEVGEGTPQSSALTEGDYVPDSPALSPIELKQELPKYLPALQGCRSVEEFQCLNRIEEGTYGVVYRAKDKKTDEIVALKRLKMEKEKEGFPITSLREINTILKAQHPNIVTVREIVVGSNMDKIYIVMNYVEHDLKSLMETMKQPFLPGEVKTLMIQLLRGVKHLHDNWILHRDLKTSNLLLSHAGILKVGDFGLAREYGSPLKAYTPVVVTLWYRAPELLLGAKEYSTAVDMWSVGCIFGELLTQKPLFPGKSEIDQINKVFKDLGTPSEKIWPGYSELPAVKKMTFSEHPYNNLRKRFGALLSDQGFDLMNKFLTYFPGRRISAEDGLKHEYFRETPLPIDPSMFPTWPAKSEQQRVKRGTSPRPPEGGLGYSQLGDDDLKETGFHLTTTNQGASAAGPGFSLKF
Serine/threonine-protein kinase PAK 6 (Homo sapiens), sequence (Q9NQU5 whole entry, looked up): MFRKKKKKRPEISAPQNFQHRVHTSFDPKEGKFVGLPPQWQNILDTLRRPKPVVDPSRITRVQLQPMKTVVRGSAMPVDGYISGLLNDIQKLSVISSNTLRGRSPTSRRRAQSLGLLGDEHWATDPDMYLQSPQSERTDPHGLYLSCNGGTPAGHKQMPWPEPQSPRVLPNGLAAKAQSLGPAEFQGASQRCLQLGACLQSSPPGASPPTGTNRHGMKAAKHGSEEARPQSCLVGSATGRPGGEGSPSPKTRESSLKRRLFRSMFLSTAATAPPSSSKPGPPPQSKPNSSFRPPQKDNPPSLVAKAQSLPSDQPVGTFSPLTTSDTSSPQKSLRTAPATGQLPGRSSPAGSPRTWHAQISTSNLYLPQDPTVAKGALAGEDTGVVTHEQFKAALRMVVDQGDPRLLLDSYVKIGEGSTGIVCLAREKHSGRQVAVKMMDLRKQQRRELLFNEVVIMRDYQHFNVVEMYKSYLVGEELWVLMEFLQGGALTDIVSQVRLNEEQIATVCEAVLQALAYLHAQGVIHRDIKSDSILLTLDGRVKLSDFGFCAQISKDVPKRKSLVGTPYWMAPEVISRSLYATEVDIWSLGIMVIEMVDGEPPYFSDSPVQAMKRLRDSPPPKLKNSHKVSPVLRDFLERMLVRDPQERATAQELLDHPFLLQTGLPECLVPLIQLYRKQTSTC

## COc1cc(Nc2nc(C)cc(-c3cnn4nc(OC)ccc34)n2)cc(C(F)(F)F)c1
[1]
  % of control: 100%

## CN(C)C/C=C/C(=O)Nc1ccc(C(=O)N2CCCC(Nc3ncc(Cl)c(-c4c[nH]c5ccccc45)n3)C2)cc1 (stereo not given)
[2]
  % of control: 99%

## Cc1cc(CN)cc(C)c1-c1ncn(C)c1-c1cncn1C
[3]
  dTM: -2.18 K

## Cn1cc(-n2cnc3c(NCc4nc5cc(Cl)c(Cl)cc5[nH]4)nc(N4CCOCC4)nc32)cn1
[4]
  % of inhibition: 9.14%

## CCN(CC)CCCCNc1ncc2cc(-c3cc(OC)cc(OC)c3)c(NC(=O)NC(C)(C)C)nc2n1
[5]
  % of control: 100%

## Nc1cnc(N2CCc3cc(S(=O)(=O)Nc4c(F)cc(Cl)cc4F)cc(N4CCCC4=O)c32)nc1 [TP-020n]
[6]
  % of control: 100%

## C=CC(=O)Nc1cc(-n2c(=O)ccc3cnc4ccc(-c5ccc(NS(C)(=O)=O)cc5)cc4c32)ccc1C
[7]
  % of control: 100%

## CCc1ccccc1C(=O)Nc1n[nH]c2c(C)c(F)c(C3C(C#N)=C(C)N(C)C(C)=C3C#N)cc12 [BAY-3827]
[8]
  % of control: 15%

## N#Cc1cccc(-c2c[nH]c3ncnc(N4CCOCC4)c23)c1
[9]
  % of inhibition: 6%
[10]
  % of control: 100%

Source: ChEMBL document CHEMBL5465560, “Selectivity Literature for EUbOPEN Chemogenomic Library” (2024)
